The results in this text go back to patent US8933111B2, “Crystalline form of (2S,4R)-5-biphenyl-4-yl-2-hydroxymethyl-2-methyl-4-[(1H-[1,2,3]triazole-4-carbonyl)-amino]-pentanoic acid 5-methyl-2-oxo-[1,3]dioxol-4-ylmethyl ester” (Theravance Biopharma R&D IP, LLC, priority 2012, dated 2015).

Series [1] is described as follows: Dynamic moisture sorption (DMS) assessment. It is filed as physicochemical. The method, then: Dynamic moisture sorption (DMS) measurements were performed using a VTI atmospheric microbalance, SGA-100 system (VTI Corp., Hialeah, Fla. 33016). A weighed sample was used and the relative humidity (RH) was set at the ambient value at the start of the analysis. The sample was subjected to an initial drying step (from 45% RH to 5% RH) followed by two cycles of adsorption (5% RH to 90% RH) and desorption (90% RH to 5% RH) experiments. The DMS analysis used a scan rate of 5% RH/step over the full humidity range of 5% (RH) to 90% RH. The DMS run was performed isothermally at 25° C.

Series [2] is described as follows: Thermogravimetric analysis (TGA). The class given is physicochemical. The conditions noted are these: heating rate of 10° C. from ambient to 220° C., nitrogen purge. The method, then: Thermogravimetric analysis (TGA) measurements were performed using a TA Instruments Model Q-50 module equipped with high resolution capability. Data were collected using TA Instruments Thermal Analyst controller and analyzed using TA Instruments Universal Analysis software. A weighed sample was placed onto a platinum pan and scanned with a heating rate of 10° C. from ambient temperature to 220° C. The balance and furnace chambers were purged with nitrogen flow during use.

The structures appear in SMILES notation.

Turning to `Cc1oc(=O)oc1COC(=O)[C@](C)(CO)C[C@@H](Cc1ccc(-c2ccccc2)cc1)NC(=O)c1c[nH]nn1` [crystalline compound, (2S,4R)-5-biphenyl-4-yl-2-hydroxymethyl-2-methyl-4-[(1H-[1,2,3]triazole-4-carbonyl)-amino]-pentanoic acid 5-methyl-2-oxo-[1,3]dioxol-4-ylmethyl ester], in series [1] (5% RH to 90% RH, two adsorption/desorption cycles, 25° C.), the “hygroscopicity (DMS profile)” value is given as “non-hygroscopic”. The “moisture picked up during the adsorption segment” value in series [1] (adsorption from 5% RH to 90% RH, isothermal at 25° C.) is listed as “less than 0.1 % by weight”. The “solid form after the DMS experiment (PXRD of post-DMS sample)” value in series [1] (after two moisture sorption-desorption cycles) is recorded as “no change in the form”. Besides, the “temperature until which the TGA trace shows no weight loss” value in series [2] was “about 200 °C”.
